Series [1] addresses P-glycoprotein (Homo sapiens (Human), UniProt P08183). Kind of series: P-glycoprotein inhibitory activity: MTT cell growth assay in P-gp overexpressing MES-SA/DX5 cells with docetaxel or paclitaxel. The format is cell-based. The conditions noted are these: 3 days, with 100 nM docetaxel or 200 nM paclitaxel, MTT readout. The method, then:
P-glycoprotein inhibitory activity may be determined by an assay wherein P-glycoprotein overexpressed cell lines are treated with increasing concentrations of a compound of the present disclosure and therapeutic agent for three days, followed by an MTT assay.
Cell growth percentage may be calculated with the following equation: Cell growth percentage=(T−T0)/(C−T0)×100%, wherein T is OD of the test well exposure to Compound; C is OD of the control well without Compound treatment; and T0 is OD at time zero.
A P-glycoprotein overexpressing cell line derived from the human uterine sarcoma cell line MES-SA (i.e., MES-SA/DX5 cells (ATCC)) was seeded by stepwise exposures to increasing concentrations of doxorubicin, in a 96-well plate at 6,500 cells/100 μL media (McCoy's 5A+10% FBS) in each well. The cells were incubated overnight at 37° C. 5% CO2. Compounds were diluted in a separate 96-well plate to yield 11× of final concentration (final Compound concentrations were 0, 5, 20, 80, 320, and 1280 nM and the final docetaxel concentration was 100 nM or the final paclitaxel concentration was 200 nM). DMSO was used as a negative control and known P-glycoprotein inhibitor, encequidar methane sulfonic acid monohydrate (HM30181A), was used as a positive control. 10 μL of the 11× dilutions was added to the appropriate well, P-glycoprotein inhibition wells comprised Compound+docetaxel (or Compound+paclitaxel). The compound toxicity wells comprised 1280 nM Compound+10 μL of culture media. Treated the cells were incubated for 3 days at 37° C. 5% CO2.
To value (reflecting the starting number of cells upon Compound treatment) of 3 wells of cells was determined by performing the following steps 1-4 as described below.
1. 10 μL MTT (5 mg/mL in PBS) was added to each well and incubated for 1.5 hours at 37° C. 5% CO2.
2. Culture media was removed and 100 μL of DMSO was added to each well.
3. The plate was gently shook until all purple MTT formazan crystals were dissolved. OD540 was then measured using microplate reader.
4. Cell growth percentage was calculated with the following equation: Cell growth percentage=(T−T0)/(C−T0)×100%, wherein T is OD of the test well exposure to Compound; C is OD of the control well without Compound treatment; and T0 is OD at time zero.

Series [2] concerns the target CYP3A4 (Homo sapiens (Human), UniProt P08684). Kind of series: CYP3A4 inhibitory activity: Luciferin-IPA (P450-Glo) assay with human liver microsome. The method, then:
Cytochrome P450 activity may be determined by a P450-Glo™ assay (Promega) with human liver microsomes wherein the compounds of the present disclosure are dosed at different concentrations in buffer and incubated. Dose-response curve and IC50 data may be obtained and fit to a nonlinear regression model using GraphPad Prism software (v6.0).
The standard final Compound concentrations were 37, 111, 333, 1000, and 3000 nM. 12.5 μL of the Compound dilutions were transferred to a white 96-well plate. 1450 μL (enough for a whole plate) of 4× assay buffer (400 mM potassium phosphate buffer (10 mL 1M potassium phosphate buffer: 8.02 mL 1M K2HPO4+1.98 mL 1M KH2PO4 (1.4 g K2HPO4+0.27 g KH2PO4 in 10 mL H2O), 32 μM Luciferin-IPA (Promega V9002)) 580 μl of 1 M K3PO4 buffer, 870 μL H2O, 14 μL of 3 mM Luciferin-IPA, and 18 μL of human liver microsome (Sigma M0317-1VL) was made. 12.5 μL of 4× assay buffer was added to each well. For the well of blank control, 12.5 μL of 4× assay buffer without liver microsome was added. The plate was incubated at room temperature for 15 minutes. 2.75 mL NADPH buffer was made as follows: 2.42 mL H2O, 275 μL solution A and 55 μL solution B (NADPH regeneration system, Promega V9510). 25 μL of the buffer was added to each well. The plates were incubated at 37° C. for 11 minutes. 50 μL of luciferin detection reagent (Promega V9002) was added and the plates were incubated at room temperature for 5 minutes. The plate was read with a luminometer.
The dose-response curve and IC50 were obtained by fitting data to nonlinear regression model using GraphPad Prism software (v6.0).
On the technique in general: Microsomes from liver hold many membrane-bound enzymes, among them those of drug oxidation.

These results are taken from US11739089B2, “Acetamido-phenyltetrazole derivatives and methods of using the same” (Athenex, Inc., priority 2020, dated 2023).

For orientation: EC50 means the concentration giving half of the maximal effect. A word on the IC50: it is the midpoint of a concentration-inhibition curve. Read a high IC50 as a need for much substance.

SMILES strings stand for the structures. Read-outs that look alike come from different tables or passages of the source.

Chain of P-glycoprotein (P08183 whole entry): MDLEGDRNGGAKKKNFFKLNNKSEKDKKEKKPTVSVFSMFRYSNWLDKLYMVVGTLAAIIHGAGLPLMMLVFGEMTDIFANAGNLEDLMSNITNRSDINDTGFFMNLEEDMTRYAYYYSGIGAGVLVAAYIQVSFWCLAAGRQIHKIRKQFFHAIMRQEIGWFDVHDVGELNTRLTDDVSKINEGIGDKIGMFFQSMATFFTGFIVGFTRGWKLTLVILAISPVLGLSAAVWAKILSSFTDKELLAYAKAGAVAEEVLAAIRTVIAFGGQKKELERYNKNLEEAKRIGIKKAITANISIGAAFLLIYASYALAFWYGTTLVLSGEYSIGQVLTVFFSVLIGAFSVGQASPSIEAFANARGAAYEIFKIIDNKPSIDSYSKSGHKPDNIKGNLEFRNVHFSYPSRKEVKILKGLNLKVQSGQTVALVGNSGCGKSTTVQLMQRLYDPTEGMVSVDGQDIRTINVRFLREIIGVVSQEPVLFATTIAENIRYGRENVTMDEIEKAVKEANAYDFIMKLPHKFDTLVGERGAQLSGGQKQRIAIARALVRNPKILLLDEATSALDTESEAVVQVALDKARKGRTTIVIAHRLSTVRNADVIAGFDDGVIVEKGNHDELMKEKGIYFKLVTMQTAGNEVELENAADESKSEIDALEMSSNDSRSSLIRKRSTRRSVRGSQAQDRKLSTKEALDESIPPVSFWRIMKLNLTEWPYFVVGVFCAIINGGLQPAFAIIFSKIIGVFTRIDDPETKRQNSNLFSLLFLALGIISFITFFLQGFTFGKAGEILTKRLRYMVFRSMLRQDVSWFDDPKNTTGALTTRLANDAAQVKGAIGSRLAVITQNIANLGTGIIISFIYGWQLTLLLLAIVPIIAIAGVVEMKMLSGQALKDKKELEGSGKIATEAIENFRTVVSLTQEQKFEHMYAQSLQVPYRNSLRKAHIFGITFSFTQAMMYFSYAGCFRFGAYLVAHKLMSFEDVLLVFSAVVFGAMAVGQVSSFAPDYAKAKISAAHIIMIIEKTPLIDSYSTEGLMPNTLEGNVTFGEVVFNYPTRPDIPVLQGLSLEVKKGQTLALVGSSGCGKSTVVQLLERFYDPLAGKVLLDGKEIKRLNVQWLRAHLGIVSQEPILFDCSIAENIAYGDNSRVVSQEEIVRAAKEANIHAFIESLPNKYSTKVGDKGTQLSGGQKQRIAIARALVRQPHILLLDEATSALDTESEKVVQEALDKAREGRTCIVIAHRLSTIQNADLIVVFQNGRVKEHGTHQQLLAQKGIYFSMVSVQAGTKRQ
Chain of CYP3A4 (P08684 whole entry): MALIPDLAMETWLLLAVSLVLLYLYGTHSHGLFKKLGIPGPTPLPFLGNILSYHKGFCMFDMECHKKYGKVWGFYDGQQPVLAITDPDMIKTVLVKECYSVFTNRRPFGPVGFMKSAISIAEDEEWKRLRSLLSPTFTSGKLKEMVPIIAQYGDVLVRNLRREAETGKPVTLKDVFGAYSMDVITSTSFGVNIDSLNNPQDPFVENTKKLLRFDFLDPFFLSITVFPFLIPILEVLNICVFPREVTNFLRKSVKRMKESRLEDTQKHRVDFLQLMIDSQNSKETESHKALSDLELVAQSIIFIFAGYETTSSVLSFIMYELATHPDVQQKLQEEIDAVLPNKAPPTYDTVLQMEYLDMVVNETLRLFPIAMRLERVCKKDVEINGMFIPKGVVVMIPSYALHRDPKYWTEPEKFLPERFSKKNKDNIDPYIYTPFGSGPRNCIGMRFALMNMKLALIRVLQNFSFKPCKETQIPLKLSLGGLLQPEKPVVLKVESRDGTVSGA

`COc1cc2c(cc1OC)CN(CCc1ccc(-n3nnc(-c4cc(OC)c(OC)cc4NC(=O)c4cc(=O)c5cc(-c6ccncc6)ccc5o4)n3)cc1)CC2` [Compound 19, N-(2-(2-(4-(2-(6,7-Dimethoxy-3,4-dihydroisoquinolin-2(1H)-yl)ethyl)phenyl)-2H-tetrazol-5-yl)-4,5-dimethoxyphenyl)-4-oxo-6-(pyridin-4-yl)-4H-chromene-2-carboxamide] registered an EC50 in series [1] of more than 1000 nM. In addition, in series [2] (human, microsomes, 11 min), the half-maximal inhibitory concentration (IC50) was more than 1000 nM.
Turning to `COc1cc2c(cc1OC)CN(CCc1ccc(-n3nnc(-c4cc(OC)c(OC)cc4NC(=O)c4cc(=O)c5cc(-n6ccnc6)ccc5o4)n3)cc1)CC2` [Compound 20, N-(2-(2-(4-(2-(6,7-Dimethoxy-3,4-dihydroisoquinolin-2(1H)-yl)ethyl)phenyl)-2H-tetrazol-5-yl)-4,5-dimethoxyphenyl)-6-(1H-imidazol-1-yl)-4-oxo-4H-chromene-2-carboxamide], in series [1], the EC50 was more than 1000 nM. The same compound showed an IC50 in series [2] (human, microsomes, 11 min) of more than 1000 nM.
With `COc1cc2c(cc1OC)CN(CCc1ccc(-n3nnc(-c4cc(OC)c(OC)cc4NC(=O)c4ccc(-c5ccncc5)cc4)n3)cc1)CC2` [Compound 21, N-(2-(2-(4-(2-(6,7-Dimethoxy-3,4-dihydroisoquinolin-2(1H)-yl)ethyl)phenyl)-2H-tetrazol-5-yl)-4,5-dimethoxyphenyl)-4-(pyridin-4-yl)benzamide], the EC50 in series [1] is less than 100 nM. In series [2] (human, microsomes, 11 min), this compound had an IC50 of more than 1000 nM.
`COc1cc2c(cc1OC)CN(CCc1ccc(-n3nnc(-c4cc(OC)c(OC)cc4NC(=O)c4ccc(-c5cccnc5)cc4)n3)cc1)CC2` [Compound 22, N-(2-(2-(4-(2-(6,7-Dimethoxy-3,4-dihydroisoquinolin-2(1H)-yl)ethyl)phenyl)-2H-tetrazol-5-yl)-4,5-dimethoxyphenyl)-4-(pyridin-3-yl)benzamide] gave an EC50 in series [1] of 100 to 250 nM. This compound displayed an IC50 in series [2] (human, microsomes, 11 min) of more than 1000 nM.
In turn, `COc1cc2c(cc1OC)CN(CCc1ccc(-n3nnc(-c4cc(OC)c(OC)cc4NC(=O)c4ccc(-n5ccnc5)cc4)n3)cc1)CC2` [Compound 23, N-(2-(2-(4-(2-(6,7-Dimethoxy-3,4-dihydroisoquinolin-2(1H)-yl)ethyl)phenyl)-2H-tetrazol-5-yl)-4,5-dimethoxyphenyl)-4-(1H-imidazol-1-yl)benzamide] displayed a concentration giving a half-maximal response (EC50) in series [1] of 250 to 500 nM. Further, the IC50 in series [2] is 500 to 1000 nM.
For the compound `COc1cc2c(cc1OC)CN(CCc1ccc(-n3nnc(-c4cc(Oc5cccnc5)ccc4NC(=O)c4cc(=O)c5ccccc5o4)n3)cc1)CC2` [Compound 24, N-(2-(2-(4-(2-(6,7-Dimethoxy-3,4-dihydroisoquinolin-2(1H)-yl)ethyl)phenyl)-2H-tetrazol-5-yl)-4-(pyridin-3-yloxy)phenyl)-4-oxo-4H-chromene-2-carboxamide], the EC50 in series [1] was less than 100 nM. Further, the half-maximal inhibitory concentration (IC50) in series [2] (human, microsomes, 11 min) was more than 1000 nM.
In turn, `COc1cc2c(cc1OC)CN(CCc1ccc(-n3nnc(-c4cc(Oc5ccncc5)ccc4NC(=O)c4cc(=O)c5ccccc5o4)n3)cc1)CC2` [Compound 25, N-(2-(2-(4-(2-(6,7-Dimethoxy-3,4-dihydroisoquinolin-2(1H)-yl)ethyl)phenyl)-2H-tetrazol-5-yl)-4-(pyridin-4-yloxy)phenyl)-4-oxo-4H-chromene-2-carboxamide] gave an EC50 in series [1] of 500 to 1000 nM. In series [2] (human, microsomes, 11 min), this compound came in with an IC50 of more than 1000 nM.
As for `COc1cc2c(cc1OC)CN(CCc1ccc(-n3nnc(-c4cc(OCc5ccncc5)ccc4NC(=O)c4cc(=O)c5ccccc5o4)n3)cc1)CC2` [Compound 26, N-(2-(2-(4-(2-(6,7-Dimethoxy-3,4-dihydroisoquinolin-2(1H)-yl)ethyl)phenyl)-2H-tetrazol-5-yl)-4-(pyridin-4-ylmethoxy)phenyl)-4-oxo-4H-chromene-2-carboxamide], the EC50 in series [1] was less than 100 nM. The same compound gave a half-maximal inhibitory concentration (IC50) in series [2] (human, microsomes, 11 min) of more than 1000 nM.
For `COc1cc2c(cc1OC)CN(CCc1ccc(-n3nnc(-c4cc(OCc5cccnc5)ccc4NC(=O)c4cc(=O)c5ccccc5o4)n3)cc1)CC2` [Compound 27, N-(2-(2-(4-(2-(6,7-Dimethoxy-3,4-dihydroisoquinolin-2(1H)-yl)ethyl)phenyl)-2H-tetrazol-5-yl)-4-(pyridin-3-ylmethoxy)phenyl)-4-oxo-4H-chromene-2-carboxamide], in that order: less than 100 nM and more than 1000 nM.
Regarding `COc1cc2c(cc1OC)CN(CCc1ccc(-n3nnc(-c4cc(OCCc5cccnc5)ccc4NC(=O)c4cc(=O)c5ccccc5o4)n3)cc1)CC2` [Compound 28, N-(2-(2-(4-(2-(6,7-Dimethoxy-3,4-dihydroisoquinolin-2(1H)-yl)ethyl)phenyl)-2H-tetrazol-5-yl)-4-(2-(pyridin-3-yl)ethoxy)phenyl)-4-oxo-4H-chromene-2-carboxamide], the concentration for a half-maximal effect (EC50) in series [1] lay in the range of 100 to 250 nM. Besides, in series [2], the IC50 was 500 to 1000 nM.
For `COc1cc2c(cc1OC)CN(CCc1ccc(-n3nnc(-c4cc(OCc5ccccc5)c(OC)cc4NC(=O)c4cc(=O)c5ccccc5o4)n3)cc1)CC2` [Compound 29, N-(4-(Benzyloxy)-2-(2-(4-(2-(6,7-dimethoxy-3,4-dihydroisoquinolin-2(1H)-yl)ethyl)phenyl)-2H-tetrazol-5-yl)-5-methoxyphenyl)-4-oxo-4H-chromene-2-carboxamide], the 50% effective concentration (EC50) in series [1] was less than 100 nM. Moreover, the IC50 in series [2] (human, microsomes, 11 min) was more than 1000 nM.
As to `COc1cc2c(cc1OC)CN(CCc1ccc(-n3nnc(-c4cc(OCc5cccnc5)c(OC)cc4NC(=O)c4cc(=O)c5ccccc5o4)n3)cc1)CC2` [Compound 30, N-(2-(2-(4-(2-(6,7-Dimethoxy-3,4-dihydroisoquinolin-2(1H)-yl)ethyl)phenyl)-2H-tetrazol-5-yl)-5-methoxy-4-(pyridin-3-ylmethoxy)phenyl)-4-oxo-4H-chromene-2-carboxamide], the EC50 in series [1] is less than 100 nM. This compound also came in with an IC50 in series [2] (human, microsomes, 11 min) of more than 1000 nM.
For `COc1cc2c(cc1OC)CN(CCc1ccc(-n3nnc(-c4cc(OC)c(OC)cc4NC(=O)c4cc(=O)c5ccccc5o4)n3)cc1)CC2` [Encequidar methanesulfonate monohydrate, reference compound], in that order: less than 100 nM and more than 1000 nM.
